Read-outs that look alike come from different tables or passages of the source.
Key:
[1] = test system: peripheral blood mononuclear cell (PBMC); experiment: Peripheral blood mononuclear cell assay; conditions: compounds 1h, washed, 15 hour incubation, average of one to four donors
Procedure: Selected compounds were tested in an in vitro peripheral blood mononuclear cell (PBMC) assay. […] Serially diluted tested compounds were added to wells in 50 μl of cultivation medium and cells were incubated with the compounds for 1h at 37° C. with 5% CO2. Plates with cells were then spun 500 g for 5 minutes and the medium was removed. Cells were washed twice with the cell culture medium by the use of centrifugation and gently resuspended in 100 μl medium without compounds. After 15 hour incubation at 37° C. with 5% CO2, the cell culture medium was collected and the levels of interferon-alpha (INF-α), interferon-gamma (INF-γ) and tumor necrosis factor-alpha (TNF-α) were determined with ProcartaPlex Assays (ThermoFisher, Waltham, USA) and MAGPIX System (Merck KGaA, Darmstadt, Germany). […] Values reported are an average of runs from one to four donors.

[2] = biological target: human wild type STING (WT STING) (Homo sapiens, UniProt Q86WV6, H232R); experiment: 293T WT STING standard reporter assay; format: cell-based; conditions: 293T WT STING EC50, 293T wtSTING-FL cells; standard reporter assay without digitonin; 7 hours; ISRE firefly luciferase
[3] = read-out: PBMC EC50 IFN-α, interferon-alpha level in medium
[4] = read-out: PBMC EC50 IFN-γ, interferon-gamma level in medium
[5] = read-out: PBMC EC50 TNF-α, tumor necrosis factor-alpha level in medium

human wild type STING (WT STING), sequence (Q86WV6 whole entry H232R): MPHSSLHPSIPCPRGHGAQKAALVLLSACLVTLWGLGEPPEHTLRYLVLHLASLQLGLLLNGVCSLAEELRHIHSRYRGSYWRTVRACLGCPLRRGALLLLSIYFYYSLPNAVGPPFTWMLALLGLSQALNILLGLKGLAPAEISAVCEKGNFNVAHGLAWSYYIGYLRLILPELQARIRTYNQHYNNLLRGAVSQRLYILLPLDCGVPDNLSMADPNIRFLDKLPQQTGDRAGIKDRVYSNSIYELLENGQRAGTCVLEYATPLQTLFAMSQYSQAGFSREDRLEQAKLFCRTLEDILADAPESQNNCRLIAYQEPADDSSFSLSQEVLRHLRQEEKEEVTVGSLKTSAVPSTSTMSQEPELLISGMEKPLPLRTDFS

CCCCCCCCCC(=O)Oc1ccc(CSP2(=O)OC[C@H]3O[C@@H](n4cnc5c(N)ncnc54)[C@H](F)[C@@H]3OCP(=O)(O)OC[C@H]3O[C@@H](n4cnc5c(=O)[nH]c(N)nc54)[C@H](O2)[C@@H]3F)cc1 (single isomer, unassigned) [Compound 35a]
EC50 [1, 3]: 2.6 µM | EC50 [1, 4]: 3.2 µM | EC50 [1, 5]: 1.9 µM

CCCCCCCCCCCC(=O)Oc1ccc(CSP2(=O)OC[C@H]3O[C@@H](n4cnc5c(N)ncnc54)[C@H](F)[C@@H]3OCP(=O)(O)OC[C@H]3O[C@@H](n4cnc5c(=O)[nH]c(N)nc54)[C@H](O2)[C@@H]3F)cc1 (single isomer, unassigned) [Compound 38a]
EC50 [1, 3]: 1.4 µM | EC50 [1, 4]: 2.6 µM | EC50 [1, 5]: 1.4 µM

CC(C)(C)C(=O)OCOc1ccc(CSP2(=O)OC[C@H]3O[C@@H](n4cnc5c(N)ncnc54)[C@H](F)[C@@H]3OCP(=O)(O)OC[C@H]3O[C@@H](n4cnc5c(=O)[nH]c(N)nc54)[C@H](O2)[C@@H]3F)cc1 (single isomer, unassigned) [Compound 39b]
EC50 [1, 3]: 0.9 µM | EC50 [1, 4]: 1.4 µM | EC50 [1, 5]: 1 µM

CCCCCC(=O)Oc1ccc(C(=O)Oc2ccc(CSP3(=O)OC[C@H]4O[C@@H](n5cnc6c(N)ncnc65)[C@H](F)[C@@H]4OCP(=O)(O)OC[C@H]4O[C@@H](n5cnc6c(=O)[nH]c(N)nc65)[C@H](O3)[C@@H]4F)cc2)cc1 (single isomer, unassigned) [Compound 40b]
EC50 [1, 3]: 8.1 µM | EC50 [1, 4]: 10.4 µM | EC50 [1, 5]: 10.4 µM

CC(C)(C)C(=O)OCSP1(=O)CO[C@H]2[C@@H](F)[C@H](n3cnc4c(N)ncnc43)O[C@@H]2COP(=O)(O)O[C@@H]2[C@H](F)[C@@H](CO1)O[C@H]2n1cnc2c(=O)[nH]c(N)nc21 (single isomer, unassigned) [Compound 41a]
EC50 [2]: 10.4 µM

CC(C)(C)C(=O)OCSP1(=O)CO[C@H]2[C@@H](F)[C@H](n3cnc4c(N)ncnc43)O[C@@H]2COP(=O)(O)O[C@@H]2[C@H](F)[C@@H](CO1)O[C@H]2n1cnc2c(=O)[nH]c(N)nc21 (single isomer, unassigned) [Compound 41b]
EC50 [2]: 87.8 µM

CCCCCC(=O)Oc1ccc(CSP2(=O)CO[C@H]3[C@@H](F)[C@H](n4cnc5c(N)ncnc54)O[C@@H]3COP(=O)(O)O[C@@H]3[C@H](F)[C@@H](CO2)O[C@H]3n2cnc3c(=O)[nH]c(N)nc32)cc1 (single isomer, unassigned) [Compound 42a]
EC50 [2]: 0.3 µM

CCCCCC(=O)Oc1ccc(CSP2(=O)CO[C@H]3[C@@H](F)[C@H](n4cnc5c(N)ncnc54)O[C@@H]3COP(=O)(O)O[C@@H]3[C@H](F)[C@@H](CO2)O[C@H]3n2cnc3c(=O)[nH]c(N)nc32)cc1 (single isomer, unassigned) [Compound 42b]
EC50 [2]: 0.2 µM

CC(C)(C)C(=O)Oc1ccc(CSP2(=O)CO[C@H]3[C@@H](F)[C@H](n4cnc5c(N)ncnc54)O[C@@H]3COP(=O)(O)O[C@@H]3[C@H](F)[C@@H](CO2)O[C@H]3n2cnc3c(=O)[nH]c(N)nc32)cc1 (single isomer, unassigned) [Compound 43a]
EC50 [2]: 1.2 µM

CC(C)(C)C(=O)Oc1ccc(CSP2(=O)CO[C@H]3[C@@H](F)[C@H](n4cnc5c(N)ncnc54)O[C@@H]3COP(=O)(O)O[C@@H]3[C@H](F)[C@@H](CO2)O[C@H]3n2cnc3c(=O)[nH]c(N)nc32)cc1 (single isomer, unassigned) [Compound 43b]
EC50 [2]: 3.1 µM

CCCCCCCCCCCC(=O)OCSP1(=O)OC[C@H]2O[C@@H](n3cnc4c(N)ncnc43)[C@H](F)[C@@H]2OCP(=O)(O)OC[C@H]2O[C@@H](n3cnc4c(=O)[nH]cnc43)[C@H](O1)[C@@H]2F (single isomer, unassigned) [Compound 56a]
EC50 [1, 3]: 1.6 µM | EC50 [1, 4]: 2.2 µM | EC50 [1, 5]: 1.8 µM

CCCCCCCCCCCC(=O)OCSP1(=O)OC[C@H]2O[C@@H](n3cnc4c(N)ncnc43)[C@H](F)[C@@H]2OCP(=O)(O)OC[C@H]2O[C@@H](n3cnc4c(=O)[nH]cnc43)[C@H](O1)[C@@H]2F (single isomer, unassigned) [Compound 56b]
EC50 [1, 3]: 3 µM | EC50 [1, 4]: 1.3 µM | EC50 [1, 5]: 2 µM

CCCCCCCCCCCC(=O)OCSP1(=O)OC[C@H]2O[C@@H](n3cnc4c(N)ncnc43)[C@H](F)[C@@H]2OCP(=O)(O)OC[C@H]2O[C@@H](n3cnc4c(=O)[nH]c(N)nc43)[C@H](O1)[C@@H]2F (single isomer, unassigned) [Compound 57b]
EC50 [1, 3]: 1.7 µM | EC50 [1, 4]: 2.5 µM | EC50 [1, 5]: 1.6 µM

CCCCCCCCCCCCCCCC(=O)OCSP1(=O)OC[C@H]2O[C@@H](n3cnc4c(N)ncnc43)[C@H](F)[C@@H]2OCP(=O)(O)OC[C@H]2O[C@@H](n3cnc4c(=O)[nH]cnc43)[C@H](O1)[C@@H]2F (single isomer, unassigned) [Compound 64a]
EC50 [1, 3]: 0.6 µM | EC50 [1, 4]: 2.6 µM | EC50 [1, 5]: 0.4 µM

CCCCCCCCCCCCCCCC(=O)OCSP1(=O)OC[C@H]2O[C@@H](n3cnc4c(N)ncnc43)[C@H](F)[C@@H]2OCP(=O)(O)OC[C@H]2O[C@@H](n3cnc4c(=O)[nH]cnc43)[C@H](O1)[C@@H]2F (single isomer, unassigned) [Compound 64b]
EC50 [1, 3]: 1.4 µM | EC50 [1, 4]: 0.8 µM | EC50 [1, 5]: 2 µM

CCCCCCCCCCCCCC(=O)OCSP1(=O)OC[C@H]2O[C@@H](n3cnc4c(N)ncnc43)[C@H](F)[C@@H]2OCP(=O)(O)OC[C@H]2O[C@@H](n3cnc4c(=O)[nH]cnc43)[C@H](O1)[C@@H]2F (single isomer, unassigned) [Compound 68a]
EC50 [1, 3]: 0.9 µM | EC50 [1, 4]: 1 µM | EC50 [1, 5]: 0.6 µM

Nc1nc2c(ncn2[C@@H]2O[C@@H]3COP(=O)(O)O[C@H]4[C@@H](O)[C@H](n5cnc6c(N)ncnc65)O[C@@H]4COP(=O)(O)O[C@@H]2[C@@H]3O)c(=O)[nH]1 [2′3′-cGAMP, c[G(2′,5′)pA(3′,5′)p], reference compound]
EC50 [1, 3]: 300 µM | EC50 [1, 4]: 164 µM | EC50 [1, 5]: 210 µM

CCCCCCCCCCCCOC(=O)OCSP1(=O)OC[C@H]2O[C@@H](n3cnc4c(N)ncnc43)[C@H](F)[C@@H]2OCP(=O)(O)OC[C@H]2O[C@@H](n3cnc4c(=O)[nH]cnc43)[C@H](O1)[C@@H]2F (stereo partly drawn) [Compound 58b, {[(1S,6R,8R,9R,10R,16R,18R,19R)-8-(6-amino-9H-purin-9-yl)-9,19-difluoro-13-hydroxy-3,13-dioxo-18-(6-oxo-6,9-dihydro-1H-purin-9-yl)-2,4,7,11,14,17-hexaoxa-3λ^5,13λ^5-diphosphatricyclo[14.2.1.0^6,10]nonadecan-3-yl]sulfanyl}methyl dodecyl carbonate]
EC50 [1, 3]: 1.2 µM | EC50 [1, 4]: 1.9 µM | EC50 [1, 5]: 1.3 µM

CCCCCCCCCCCCOC(=O)OCSP1(=O)OC[C@H]2O[C@@H](n3cnc4c(N)ncnc43)[C@H](F)[C@@H]2OCP(=O)(O)OC[C@H]2O[C@@H](n3cnc4c(=O)[nH]c(N)nc43)[C@H](O1)[C@@H]2F (stereo partly drawn) [Compound 59b, {[(1S,6R,8R,9R,10R,16R,18R,19R)-18-(2-amino-6-oxo-6,9-dihydro-1H-purin-9-yl)-8-(6-amino-9H-purin-9-yl)-9,19-difluoro-13-hydroxy-3,13-dioxo-2,4,7,11,14,17-hexaoxa-3λ^5,13λ^5-diphosphatricyclo[14.2.1.0^6,10]nonadecan-3-yl]sulfanyl}methyl dodecyl carbonate]
EC50 [1, 3]: 1.8 µM | EC50 [1, 4]: 2.2 µM | EC50 [1, 5]: 2.1 µM

CCCCCCCC(=O)OCSP1(=O)OC[C@H]2O[C@@H](n3cnc4c(N)ncnc43)[C@H](F)[C@@H]2OCP(=O)(O)OC[C@H]2O[C@@H](n3cnc4c(=O)[nH]cnc43)[C@H](O1)[C@@H]2F (stereo partly drawn) [Compound 63b, {[(1S,6R,8R,9R,10R,16R,18R,19R)-8-(6-amino-9H-purin-9-yl)-9,19-difluoro-13-hydroxy-3,13-dioxo-18-(6-oxo-6,9-dihydro-1H-purin-9-yl)-2,4,7,11,14,17-hexaoxa-3λ^5,13λ^5-diphosphatricyclo[14.2.1.0^6,10]nonadecan-3-yl]sulfanyl}methyl octanoate]
EC50 [1, 3]: 9 µM | EC50 [1, 4]: 3.7 µM | EC50 [1, 5]: 8 µM

CCCCCCCCCCCCCCOC(=O)OCSP1(=O)OC[C@H]2O[C@@H](n3cnc4c(N)ncnc43)[C@H](F)[C@@H]2OCP(=O)(O)OC[C@H]2O[C@@H](n3cnc4c(=O)[nH]cnc43)[C@H](O1)[C@@H]2F (stereo partly drawn) [Compound 72b, {[(1S,6R,8R,9R,10R,16R,18R,19R)-8-(6-amino-9H-purin-9-yl)-9,19-difluoro-13-hydroxy-3,13-dioxo-18-(6-oxo-6,9-dihydro-1H-purin-9-yl)-2,4,7,11,14,17-hexaoxa-3λ^5,13λ^5-diphosphatricyclo[14.2.1.0^6,10]nonadecan-3-yl]sulfanyl}methyl tetradecyl carbonate]
EC50 [1, 3]: 1.7 µM | EC50 [1, 4]: 0.8 µM | EC50 [1, 5]: 1.6 µM

CCCCCCCCCCCCCCCCOC(=O)OCSP1(=O)OC[C@H]2O[C@@H](n3cnc4c(N)ncnc43)[C@H](F)[C@@H]2OCP(=O)(O)OC[C@H]2O[C@@H](n3cnc4c(=O)[nH]cnc43)[C@H](O1)[C@@H]2F (stereo partly drawn) [Compound 73b, {[(1S,6R,8R,9R,10R,16R,18R,19R)-8-(6-amino-9H-purin-9-yl)-9,19-difluoro-13-hydroxy-3,13-dioxo-18-(6-oxo-6,9-dihydro-1H-purin-9-yl)-2,4,7,11,14,17-hexaoxa-3λ^5,13λ^5-diphosphatricyclo[14.2.1.0^6,10]nonadecan-3-yl]sulfanyl}methyl hexadecyl carbonate]
EC50 [1, 3]: 3 µM | EC50 [1, 4]: 7 µM | EC50 [1, 5]: 4 µM

CCCCCCCCCCCCCCCCCCOC(=O)OCSP1(=O)OC[C@H]2O[C@@H](n3cnc4c(N)ncnc43)[C@H](F)[C@@H]2OCP(=O)(O)OC[C@H]2O[C@@H](n3cnc4c(=O)[nH]cnc43)[C@H](O1)[C@@H]2F (stereo partly drawn) [Compound 74b, {[(1S,6R,8R,9R,10R,16R,18R,19R)-8-(6-amino-9H-purin-9-yl)-9,19-difluoro-13-hydroxy-3,13-dioxo-18-(6-oxo-6,9-dihydro-1H-purin-9-yl)-2,4,7,11,14,17-hexaoxa-3λ^5,13λ^5-diphosphatricyclo[14.2.1.0^6,10]nonadecan-3-yl]sulfanyl}methyl octadecyl carbonate]
EC50 [1, 3]: 2.2 µM | EC50 [1, 4]: 2.4 µM | EC50 [1, 5]: 3 µM
